Common to all, as to type: in vivo
The test system of experiment [1] is Stellaria. The experiment in a line: Post-emergent herbicidal action (contact herbicide). More on the design: key: 1=complete damage; 9=no action; Ratings of 1 to 4 (in particular 1 to 3) mean a good to very good herbicidal action. The following applies: 2000 g of active substance/ha, sprayed in the 4- to 6-leaf stage, evaluated after about 18 days, ratings scale 1-9. As for the experimental part: (§1) Monocotyledon and dicotyledon test plants are grown in plastic pots with standard soil in a greenhouse and, in the 4- to 6-leaf stage, are sprayed with an aqueous suspension of the test substances of the formula 1, prepared from a 25% wettable power (Example F3, b)), corresponding to a dosage of 2000 g of active substance/ha (500 l of water/ha). The test plants are then grown further in the greenhouse under optimum conditions. After a test period of about 18 days, the test is evaluated with a ratings scale of 9 levels (1=complete damage, 9=no action). Ratings of 1 to 4 (in particular 1 to 3) mean a good to very good herbicidal action.
(§2) Test plants: Sinapis, Stellaria

The subject of experiment [2] is Sinapis. The experiment is described as above. The arrangement: key: 1=complete damage; 9=no action; Ratings of 1 to 4 (in particular 1 to 3) mean a good to very good herbicidal action. Particulars: 2000 g of active substance/ha, sprayed in the 4- to 6-leaf stage, evaluated after about 18 days, ratings scale 1-9. As for the experimental part:
as §1, §2

Experiment [3] has as its system Avena. The experiment in a line: Herbicidal action before emergence of the plants (pre-emergent action). Particulars: 2000 g of active substance/ha, sprayed immediately after sowing, evaluated after 3 weeks, ratings scale of nine levels (1=complete damage, 9=no action). As for the experimental part:
(§3) Monocotyledon and dicotyledon test plants are sown in standard soil in plastic pots. Immediately after sowing, the test substances are sprayed on (500 l of water/ha) in an aqueous suspension prepared from a 25% wettable powder (Example F3, b)), corresponding to a dosage of 2000 g of active substance/ha. The test plants are then grown under optimum conditions in a greenhouse. After a test period of 3 weeks, the test is evaluated with a ratings scale of nine levels (1=complete damage, 9=no action). Ratings of 1 to 4 (in particular 1 to 3) mean a good to very good herbicidal action.
(§4) Test plants: Avena, Setaria, Sinapis, Stellaria

Experiment [4] relates to Stellaria. The description is as above. More on the design: key: 1=complete damage; 9=no action; Ratings of 1 to 4 (in particular 1 to 3) mean a good to very good herbicidal action. The following applies: 2000 g of active substance/ha, sprayed immediately after sowing, evaluated after 3 weeks, ratings scale of nine levels. Here is the method:
as §3, §4

For experiment [5], the system named is Setaria. Described as above. More on the design: key: 1=complete damage; 9=no action; Ratings of 1 to 4 (in particular 1 to 3) mean a good to very good herbicidal action. Particulars: 2000 g of active substance/ha, sprayed immediately after sowing, evaluated after 3 weeks, ratings scale of nine levels. Here is the method:
as §3, §4

In experiment [6] the test system is Sinapis. The experiment is described as above. More on the design: key: 1=complete damage; 9=no action; Ratings of 1 to 4 (in particular 1 to 3) mean a good to very good herbicidal action. Particulars: 2000 g of active substance/ha, sprayed immediately after sowing, evaluated after 3 weeks, ratings scale of nine levels. Here is the method: as §3, §4

Structures are written as SMILES.

With `NC1=NC(Oc2c(F)c(F)c(F)c(F)c2F)=NS(N2CC[C@H]3CCC[C@H]32)=N1` (relative stereo) [6.6], in experiment [1], the “Post-emergent action, rating, Stellaria” value is given as 4. Moreover, the “Post-emergent action, rating, Sinapis” value in experiment [2] amounted to 2.

Regarding `NC1=NC(Oc2c(F)c(F)c(F)c(F)c2F)=NS(N2CC[C@H]3CCC[C@H]32)=N1` (relative stereo) [6.10], the “Pre-emergent action, rating, Avena” value in experiment [3] stood at 4. Moreover, the “Pre-emergent action, rating, Stellaria” value in experiment [4] is recorded as 1. Besides, the “Pre-emergent action, rating, Setaria” value in experiment [5] was determined as 4. In experiment [6], the “Pre-emergent action, rating, Sinapis” value was 1.

Turning to `NC1=NC(Oc2c(F)c(F)c(F)c(F)c2F)=NS(N2CCC[C@H]3CCC[C@H]32)=N1` (relative stereo) [6.27], in experiment [3], the “Pre-emergent action, rating, Avena” value worked out at 4. The “Post-emergent action, rating, Stellaria” value in experiment [1] came to 3. In experiment [2], the “Post-emergent action, rating, Sinapis” value is on record as 2. In experiment [4], the “Pre-emergent action, rating, Stellaria” value stood at 1. Also, the “Pre-emergent action, rating, Setaria” value in experiment [5] was found to be 3. Besides, the “Pre-emergent action, rating, Sinapis” value in experiment [6] is on record as 2.

With `NC1=NC(Oc2cc(F)ccc2F)=NS(N2CC[C@H]3CCCC[C@H]32)=N1` (relative stereo) [6.120], the “Post-emergent action, rating, Stellaria” value in experiment [1] was 4. Besides, the “Post-emergent action, rating, Sinapis” value in experiment [2] turned out to be 2.

As to `NC1=NS(N2CCC[C@H]3CCCC[C@H]32)=NC(Oc2c(F)c(F)cc(F)c2F)=N1` (relative stereo) [6.331], the “Pre-emergent action, rating, Avena” value in experiment [3] is reported as 4. For the same compound, the “Post-emergent action, rating, Stellaria” value in experiment [1] is listed as 2. Besides, the “Post-emergent action, rating, Sinapis” value in experiment [2] was 1. In addition, the “Pre-emergent action, rating, Stellaria” value in experiment [4] is 1. Also, the “Pre-emergent action, rating, Setaria” value in experiment [5] came to 2. Besides, in experiment [6], the “Pre-emergent action, rating, Sinapis” value is given as 1.

Consider `CCC(C)(C)C1CCC(OS2=NC(N)=NC(Oc3c(F)c(F)c(F)c(F)c3F)=N2)CC1` (stereo not shown) [5.59], for which the “Post-emergent action, rating, Stellaria” value in experiment [1] is reported as 3. Besides, the “Post-emergent action, rating, Sinapis” value in experiment [2] was 1.

As for `NC1=NC(Oc2c(F)c(F)c(F)c(F)c2F)=NS(OCC23CC4CC(CC(C4)C2)C3)=N1` (stereo not shown) [5.85], the “Post-emergent action, rating, Stellaria” value in experiment [1] is 3. Moreover, the “Post-emergent action, rating, Sinapis” value in experiment [2] was 3.

In the case of `CC1CC(OS2=NC(N)=NC(Oc3c(F)c(F)c(F)c(F)c3F)=N2)CC(C)(C)C1` (stereo not shown) [5.86], in experiment [3], the “Pre-emergent action, rating, Avena” value was found to be 5. Moreover, in experiment [4], the “Pre-emergent action, rating, Stellaria” value is recorded as 1. Further, in experiment [5], the “Pre-emergent action, rating, Setaria” value was 3. Besides, in experiment [6], the “Pre-emergent action, rating, Sinapis” value stood at 1.

Regarding `CC1CCCC(OS2=NC(N)=NC(Oc3c(F)c(F)c(F)c(F)c3F)=N2)C1` (stereo not shown) [5.141], the “Post-emergent action, rating, Stellaria” value in experiment [1] worked out at 4. Besides, the “Post-emergent action, rating, Sinapis” value in experiment [2] worked out at 2.

In the case of `CC1(C)CC(OS2=NC(N)=NC(Oc3c(F)c(F)c(F)c(F)c3F)=N2)CC(C)(C)C1` (stereo not shown) [5.146], the “Pre-emergent action, rating, Avena” value in experiment [3] is on record as 4. Also, the “Pre-emergent action, rating, Stellaria” value in experiment [4] was found to be 1. For the same compound, the “Pre-emergent action, rating, Setaria” value in experiment [5] is on record as 1. In experiment [6], the “Pre-emergent action, rating, Sinapis” value is given as 1.

As to `CC1(C)C2CCC1(C)C(OS1=NC(N)=NC(Oc3c(F)c(F)c(F)c(F)c3F)=N1)C2` (stereo not shown) [5.154], the “Post-emergent action, rating, Stellaria” value in experiment [1] was 4. Also, the “Post-emergent action, rating, Sinapis” value in experiment [2] was found to be 2.

Take `CC(C)(C)C1CCC(OS2=NC(N)=NC(Oc3c(F)c(F)c(F)c(F)c3F)=N2)CC1` (stereo not shown) [5.316]: in experiment [1], the “Post-emergent action, rating, Stellaria” value is on record as 4. Further, in experiment [2], the “Post-emergent action, rating, Sinapis” value amounted to 2.

For the compound `CC1CCCC(OS2=NC(N)=NC(Oc3c(F)c(F)c(F)c(F)c3F)=N2)C1` (stereo not shown) [5.317], the “Pre-emergent action, rating, Avena” value in experiment [3] turned out to be 4. Also, the “Pre-emergent action, rating, Stellaria” value in experiment [4] is listed as 1. Also, the “Pre-emergent action, rating, Setaria” value in experiment [5] is given as 2. In addition, the “Pre-emergent action, rating, Sinapis” value in experiment [6] stood at 2.

As to `CC1CCCC(OS2=NC(N)=NC(Oc3cc(F)ccc3F)=N2)C1` (stereo not shown) [5.318], the “Post-emergent action, rating, Stellaria” value in experiment [1] is listed as 4. Further, the “Post-emergent action, rating, Sinapis” value in experiment [2] stood at 2.

As for `CC1CCC(OS2=NC(N)=NC(Oc3c(F)c(F)c(F)c(F)c3F)=N2)CC1` (stereo not shown) [5.327], the “Pre-emergent action, rating, Avena” value in experiment [3] is recorded as 4. Also, in experiment [4], the “Pre-emergent action, rating, Stellaria” value was determined as 1. In addition, in experiment [5], the “Pre-emergent action, rating, Setaria” value worked out at 3. The “Pre-emergent action, rating, Sinapis” value in experiment [6] came out at 2.

As for `NC1=NC(OCC(Cl)(Cl)C(F)(F)F)=NS(OCCCl)=N1` (stereo not shown) [5.337], in experiment [1], the “Post-emergent action, rating, Stellaria” value came out at 5. In addition, the “Post-emergent action, rating, Sinapis” value in experiment [2] came to 1.

Turning to `CN(C1CCCCC1)S1=NC(N)=NC(Oc2c(F)c(F)c(F)c(F)c2F)=N1` (stereo not shown) [6.7], the “Post-emergent action, rating, Stellaria” value in experiment [1] amounted to 3. Besides, the “Post-emergent action, rating, Sinapis” value in experiment [2] is on record as 2.

The record behind these values is patent US6362134B1, “Herbicidal 1,2,4,6-thiatriazines” (Syngenta Investment Corporation, priority 1996, dated 2002).
